In patent US20240148821A1, “PHARMACEUTICAL USE OF CYCLIC PEPTIDE COMPOUND” (CHUGAI SEIYAKU KABUSHIKI KAISHA, priority 2021, published 2024):
Numbered stars: 1 amine (or outer) side, 2 acyl side, 3 side chain; on linkers, the order of the positions; unused ones are H or OH. Bridge positions count the residues as written; N and C are the ends. Square brackets hold non-standard residues; d marks the D form. Peptide text beside a SMILES is read from it. * marks the point of attachment. hPhe(3-Cl-4-CF3) = N[C@@H](CCc1ccc(C(F)(F)F)c(Cl)c1)C(=O)O; NMePhe(4-CF3) = CN[C@@H](Cc1ccc(C(F)(F)F)cc1)C(=O)O; hPhe(4-CF3) = N[C@@H](CCc1ccc(C(F)(F)F)cc1)C(=O)O; 3Oxa8azabicyclo(3.2.1)octane = C1CC2COCC1N2*; NMePhe(4-Cl) = CN[C@@H](Cc1ccc(Cl)cc1)C(=O)O; NMePhe(4-Me) = CN[C@@H](Cc1ccc(C)cc1)C(=O)O; NMedβ3hAla = C[C@H](CC(=O)[*:2])N(C)[*:1]; NMeAla(cPent) = CN[C@@H](CC1CCCC1)C(=O)O; NMeGly(cPent) = CN[C@H](C(=O)O)C1CCCC1; Phe(3-I) = N[C@@H](Cc1cccc(I)c1)C(=O)O; X26 = CC(C)=CC[C@H](N[*:1])C(=O)[*:2]; NMeCha = CN[C@@H](CC1CCCCC1)C(=O)O; X124 = O=C([C@H]1COCCN1[*:1])[*:2]; cisHyp = O=C(O)[C@@H]1C[C@H](O)CN1; Hyp = O=C(O)[C@@H]1C[C@@H](O)CN1; NMeChg = CN[C@H](C(=O)O)C1CCCCC1; NMeF = CN[C@@H](Cc1ccccc1)C(=O)O; dNMeF = CN[C@H](Cc1ccccc1)C(=O)O; NMeD = CN[C@@H](CC(=O)O)C(=O)O; NMeL = CN[C@@H](CC(C)C)C(=O)O; dNMeAbu = CC[C@@H](NC)C(=O)O; d(β3hA) = C[C@@H](N)CC(=O)O; NMeS = CN[C@@H](CO)C(=O)O; NMeA = CN[C@@H](C)C(=O)O; NMeAib = CNC(C)(C)C(=O)O; Piperidide = C1CCN(*)CC1; Pra = C#CC[C@H](N)C(=O)O; dNMeA = CN[C@H](C)C(=O)O; Ac5c = NC1(C(=O)O)CCCC1; Aze = O=C(O)[C@@H]1CCN1; CH2CMe2OH = CC(C)(O)C*; Isopentyl = CC(C)CC*; NEtG = CCNCC(=O)O; Sar = CNCC(=O)O; Propyl = CCC*

These molecules were tested against protein-protein interaction between Kras and SOS1 (biotin-tagged human Kras loaded with GDP, His-tagged human SOS1) (Homo sapiens (Human), UniProt P01116, G12D) (assay: Protein-protein interaction inhibition between Kras and SOS1 (KrasG12D-SOS PPI) using AlphaScreen). Settings: AlphaScreen; biotin-tagged human Kras loaded with GDP, His-tagged human SOS1; read-out: KRAS G12D-SOS PPI IC50.
Format: biochemical

SMILES	IC50 [µM]
CCCOC[C@H]1C(=O)N(C)CC(=O)N[C@@H](CCc2ccc(C(F)(F)F)c(Cl)c2)C(=O)N2CCC[C@H]2C(=O)NC2(CCCC2)C(=O)N(C)[C@@H](C2CCCC2)C(=O)N(C)[C@H](C(=O)N2C3CCC2COC3)CC(=O)N(C)[C@@H](CC2CCCC2)C(=O)N[C@@H]([C@@H](C)CC)C(=O)N[C@@H](C)C(=O)N2CC[C@H]2C(=O)N1C [Compound 1359] ([NMeAla(cPent)]IA[Aze][NMeS](Propyl)[Sar][hPhe(3-Cl-4-CF3)]P[Ac5c][NMeGly(cPent)][NMeD]-{3Oxa8azabicyclo(3.2.1)octane}; lactam N-11)	0.0062
CC[C@H](C)[C@@H]1NC(=O)[C@H](C)N(C)C(=O)C[C@@H](C)NC(=O)[C@H](CC(C)C)N(C)C(=O)[C@H](Cc2ccccc2)N(C)C(=O)[C@@H]2C[C@H](O)CN2C(=O)[C@H](CCc2ccc(C(F)(F)F)cc2)NC(=O)CN(C)C(=O)[C@H](Cc2ccc(Cl)cc2)N(C)C(=O)CN(C)C(=O)CN(C)C1=O [Compound 1373] (cyclo(I[Sar][Sar][NMePhe(4-Cl)][Sar][hPhe(4-CF3)][cisHyp][NMeF][NMeL][d(β3hA)][NMeA]))	0.0077
CC[C@H](C)[C@@H]1NC(=O)[C@H](CC(C)C)N(C)C(=O)C[C@@H](C(=O)N2CCCCC2)N(C)C(=O)[C@H](C2CCCCC2)N(C)C(=O)C2(CCCC2)NC(=O)[C@@H]2C[C@H](O)CN2C(=O)[C@H](CCc2ccc(C(F)(F)F)c(Cl)c2)NC(=O)CN(C)C(=O)[C@H](CC2CCCCC2)N(C)C(=O)CN(C)C(=O)CN(C)C1=O [Compound 1374, (3S,9S,18S,21S,25S,28S,34S,36S)-3-[2-[3-chloro-4-(trifluoromethyl)phenyl]ethyl]-28-cyclohexyl-9-(cyclohexylmethyl)-36-hydroxy-21-isobutyl-7,10,13,16,22,26,29-heptamethyl-18-[(1S)-1-methylpropyl]-25-(piperidine-1-carbonyl)spiro[1,4,7,10,13,16,19,22,26,29,32-undecazabicyclo[32.3.0]heptatriacontane-31,1′-cyclopentane]-2,5,8,11,14,17,20,23,27,30,33-undecone] ([NMeL]I[Sar][Sar][NMeCha][Sar][hPhe(3-Cl-4-CF3)][cisHyp][Ac5c][NMeChg][NMeD]-Piperidide; lactam N-11)	0.00054
CC[C@H](C)[C@@H]1NC(=O)[C@H](C)N(C)C(=O)C[C@@H](C)NC(=O)[C@H](CC(C)C)N(C)C(=O)[C@H](Cc2ccccc2)N(C)C(=O)[C@@H]2C[C@@H](O)CN2C(=O)[C@H](CCc2ccc(C(F)(F)F)cc2)NC(=O)CN(C)C(=O)[C@H](Cc2ccc(Cl)cc2)N(C)C(=O)CN(C)C(=O)CN(C)C1=O [Compound 1375] (cyclo([Hyp][NMeF][NMeL][d(β3hA)][NMeA]I[Sar][Sar][NMePhe(4-Cl)][Sar][hPhe(4-CF3)]))	0.0093
CC[C@H](C)[C@@H]1NC(=O)[C@H](CC(C)C)N(C)C(=O)C[C@@H](C(=O)N2CCCCC2)N(C)C(=O)[C@H](C2CCCCC2)N(C)C(=O)C2(CCCC2)NC(=O)[C@@H]2C[C@@H](O)CN2C(=O)[C@H](CCc2ccc(C(F)(F)F)c(Cl)c2)NC(=O)CN(C)C(=O)[C@H](CC2CCCCC2)N(C)C(=O)CN(C)C(=O)CN(C)C1=O [Compound 1376, (3S,9S,18S,21S,25S,28S,34S,36R)-3-[2-[3-chloro-4-(trifluoromethyl)phenyl]ethyl]-28-cyclohexyl-9-(cyclohexylmethyl)-36-hydroxy-21-isobutyl-7,10,13,16,22,26,29-heptamethyl-18-[(1S)-1-methylpropyl]-25-(piperidine-1-carbonyl)spiro[1,4,7,10,13,16,19,22,26,29,32-undecazabicyclo[32.3.0]heptatriacontane-31,1′-cyclopentane]-2,5,8,11,14,17,20,23,27,30,33-undecone] ([NMeL]I[Sar][Sar][NMeCha][Sar][hPhe(3-Cl-4-CF3)][Hyp][Ac5c][NMeChg][NMeD]-Piperidide; lactam N-11)	0.00071
CC[C@H](C)[C@@H]1NC(=O)[C@H](C)N(C)C(=O)C[C@@H](C)N(C)C(=O)[C@H](CC(C)C)NC(=O)C(C)(C)N(C)C(=O)[C@H](CC(C)C)NC(=O)[C@H](CCc2ccc(C(F)(F)F)c(Cl)c2)NC(=O)[C@@H](C)N(C)C(=O)[C@H](Cc2ccc(C)cc2)N(C)C(=O)CN(C)C(=O)CN(C)C1=O [Compound 1381] (cyclo(I[Sar][Sar][NMePhe(4-Me)][dNMeA][hPhe(3-Cl-4-CF3)]L[NMeAib]L[NMedβ3hAla][NMeA]))	0.15
CC[C@H](C)[C@@H]1NC(=O)[C@H](CC(C)C)N(C)C(=O)C[C@@H](C)N(C)C(=O)[C@H](CC(C)C)NC(=O)C(C)(C)N(C)C(=O)[C@H](CC(C)C)NC(=O)[C@H](CCc2ccc(C(F)(F)F)c(Cl)c2)NC(=O)[C@@H](C)N(C)C(=O)[C@H](Cc2ccc(C)cc2)N(C)C(=O)CN(C)C(=O)CN(C)C1=O [Compound 1384] (cyclo(I[Sar][Sar][NMePhe(4-Me)][dNMeA][hPhe(3-Cl-4-CF3)]L[NMeAib]L[NMedβ3hAla][NMeL]))	0.23
CC[C@H](C)[C@@H]1NC(=O)[C@H](C)N(C)C(=O)C[C@@H](C)N(C)C(=O)[C@H](CC(C)C)NC(=O)C(C)(C)N(C)C(=O)[C@H](CC(C)C)NC(=O)[C@H](CCc2ccc(C(F)(F)F)c(Cl)c2)NC(=O)[C@@H](C)N(C)C(=O)[C@H](Cc2ccc(C(F)(F)F)cc2)N(C)C(=O)CN(C)C(=O)CN(C)C1=O [Compound 1385] (cyclo(I[Sar][Sar][NMePhe(4-CF3)][dNMeA][hPhe(3-Cl-4-CF3)]L[NMeAib]L[NMedβ3hAla][NMeA]))	0.2
CC[C@H](C)[C@@H]1NC(=O)[C@H](CC(C)C)N(C)C(=O)C[C@@H](C)N(C)C(=O)[C@H](CC(C)C)NC(=O)C(C)(C)N(C)C(=O)[C@H](CC(C)C)NC(=O)[C@H](CCc2ccc(C(F)(F)F)c(Cl)c2)NC(=O)[C@@H](C)N(C)C(=O)[C@H](CC2CCCCC2)N(C)C(=O)CN(C)C(=O)CN(C)C1=O [Compound 1389] (cyclo(I[Sar][Sar][NMeCha][dNMeA][hPhe(3-Cl-4-CF3)]L[NMeAib]L[NMedβ3hAla][NMeL]))	0.24
CC[C@H](C)[C@@H]1NC(=O)[C@H](C)N(C)C(=O)C[C@@H](C)N(C)C(=O)[C@H](CC(C)C)NC(=O)C(C)(C)N(C)C(=O)[C@H](CC(C)C)NC(=O)[C@H](CCc2ccc(C(F)(F)F)c(Cl)c2)NC(=O)[C@@H](C)N(C)C(=O)[C@H](CC2CCCCC2)N(C)C(=O)CN(C)C(=O)CN(C)C1=O [Compound 1390] (cyclo(I[Sar][Sar][NMeCha][dNMeA][hPhe(3-Cl-4-CF3)]L[NMeAib]L[NMedβ3hAla][NMeA]))	0.28
C#CC[C@@H]1NC(=O)[C@H](Cc2cccc(I)c2)NC(=O)CN(C)C(=O)[C@H](Cc2ccc(C(F)(F)F)cc2)N(C)C(=O)CN(C)C(=O)CN(C)C(=O)[C@H]([C@@H](C)CC)NC(=O)[C@H](CC(C)C)N(C)C(=O)C[C@@H](C)N(C)C(=O)[C@H](CC(C)C)NC(=O)C(C)(C)N(C)C1=O [Compound 1406] (cyclo(I[Sar][Sar][NMePhe(4-CF3)][Sar][Phe(3-I)][Pra][NMeAib]L[NMedβ3hAla][NMeL]))	0.16
CC[C@H](C)[C@@H]1NC(=O)[C@H](CC(C)C)N(C)C(=O)C[C@@H](C)N(C)C(=O)[C@H](CC(C)C)NC(=O)C(C)(C)N(C)C(=O)[C@H](CC=C(C)C)NC(=O)[C@H](Cc2cccc(I)c2)NC(=O)CN(C)C(=O)[C@H](Cc2ccc(Cl)cc2)N(C)C(=O)CN(C)C(=O)CN(C)C1=O [Compound 1418] (cyclo(I[Sar][Sar][NMePhe(4-Cl)][Sar][Phe(3-I)][X26][NMeAib]L[NMedβ3hAla][NMeL]))	0.11
CC[C@@H]1C(=O)NC2(CCCC2)C(=O)N(C)[C@@H](C2CCCC2)C(=O)N(C)[C@H](C(=O)N2CCCCC2)CC(=O)N(C)[C@@H](CC(C)C)C(=O)N[C@@H]([C@@H](C)CC)C(=O)N(C)CC(=O)N(C)CC(=O)N(C)[C@@H](CC2CCCCC2)C(=O)N(C)CC(=O)N[C@@H](CCc2ccc(C(F)(F)F)c(Cl)c2)C(=O)N1C [Compound 1439] ([NMeL]I[Sar][Sar][NMeCha][Sar][hPhe(3-Cl-4-CF3)][dNMeAbu][Ac5c][NMeGly(cPent)][NMeD]-Piperidide; lactam N-11)	0.0037
CC[C@H](C)[C@@H]1NC(=O)[C@H](CC(C)C)N(C)C(=O)C[C@@H](C(=O)N2CCCCC2)N(C)C(=O)[C@H](C2CCCCC2)N(C)C(=O)C2(CCCC2)NC(=O)[C@H]2COCCN2C(=O)[C@H](CCc2ccc(C(F)(F)F)c(Cl)c2)NC(=O)CN(C)C(=O)[C@H](CC2CCCCC2)N(C)C(=O)CN(C)C(=O)CN(C)C1=O [Compound 1445] ([NMeL]I[Sar][Sar][NMeCha][Sar][hPhe(3-Cl-4-CF3)][X124][Ac5c][NMeChg][NMeD]-Piperidide; lactam N-11)	0.25
CC[C@H](C)[C@@H]1NC(=O)[C@H](CC(C)C)N(C)C(=O)C[C@@H](C(=O)N2CCCCC2)N(C)C(=O)[C@H](C2CCCC2)N(C)C(=O)C2(CCCC2)NC(=O)[C@@H](Cc2ccccc2)N(C)C(=O)[C@H](CCc2ccc(C(F)(F)F)c(Cl)c2)NC(=O)CN(C)C(=O)[C@H](CC2CCCCC2)N(C)C(=O)CN(C)C(=O)CN(C)C1=O [Compound 1446] ([NMeL]I[Sar][Sar][NMeCha][Sar][hPhe(3-Cl-4-CF3)][dNMeF][Ac5c][NMeGly(cPent)][NMeD]-Piperidide; lactam N-11)	0.15
CC[C@H](C)[C@@H]1NC(=O)[C@H](CC(C)C)N(C)C(=O)C[C@@H](C)NC(=O)[C@H](CC(C)C)N(C)C(=O)C2(CCCC2)NC(=O)[C@H](COCC(C)(C)O)N(C)C(=O)[C@H](CCc2ccc(C(F)(F)F)c(Cl)c2)NC(=O)CN(C)C(=O)[C@H](COCCC(C)C)N(C)C(=O)CN(C)C(=O)CN(CC)C1=O [Compound 1464] (cyclo([Ac5c][NMeL][d(β3hA)][NMeL]I[NEtG][Sar][NMeS](Isopentyl)[Sar][hPhe(3-Cl-4-CF3)][NMeS](CH2CMe2OH)))	0.19
CC[C@H](C)[C@@H]1NC(=O)[C@H](CC(C)C)N(C)C(=O)C[C@@H](C)NC(=O)[C@H](C2CCCC2)N(C)C(=O)C2(CCCC2)NC(=O)[C@@H]2CCCN2C(=O)[C@H](CCc2ccc(C(F)(F)F)c(Cl)c2)NC(=O)[C@@H](C)N(C)C(=O)[C@H](Cc2ccc(C(F)(F)F)cc2)N(C)C(=O)[C@@H]2CCN2C(=O)CN(C)C1=O [Compound 1468] (cyclo([Ac5c][NMeGly(cPent)][d(β3hA)][NMeL]I[Sar][Aze][NMePhe(4-CF3)][dNMeA][hPhe(3-Cl-4-CF3)]P))	0.09
